Consider 20 compounds from patent publication US8492313B2, “Synergistic herbicidal combinations comprising tembotrione” (Bayer Cropscience AG, priority 2009, dated 2013).

This assay concerns IPOHE (Ipomoea hederacea). The assay is described as follows: Post-emergence action against IPOHE. The assay is classed as in vivo. On the procedure:
The herbicidal activity of the active substances or active substance mixtures was evaluated visually from the treated variants in comparison with untreated control variants. In this connection, damage to and development of all plant parts above ground was included. The evaluation was carried out according to a percentage scale (100% action=all plants dead; 50% action=50% of the plants and green plant parts dead; 0% action=no recognizable action=as untreated control plot).
Seeds or root pieces of mono- and dicotyledonous weeds are placed in sandy clay soil in pots, covered with earth and secured in a greenhouse under good growing conditions (temperature, air humidity, water supply). Approximately three weeks after sowing, the test plants are treated with the compositions according to the invention. The compositions according to the invention formulated as wettable powders or as emulsion concentrates are sprayed, in spray application, on to the green plant parts in different dosages with a water application rate of 600 to 800 l/ha (corrected). Immediately up to a few days after application, the test receptacles accumulate water over the ground surface by up to 30 mm. With the water application (submerged application), on the other hand, the ground in the closed test receptacle is already covered with the paddy water up to 30 mm at the time of the application. The formulated active substances are here added directly to the paddy water. After an exposure time of the test plants in the greenhouse of an additional 3 to 4 weeks under optimum growing conditions, the effect of the preparations is evaluated visually in comparison with untreated controls. […] In this connection, actions of the combinations according to the invention which exceed the formal sum of the actions of the herbicides when applied individually are frequently observed. The values observed for the tests show, with suitable low dosages, an action of the combinations which lies above the expected values according to Colby.
If the observed activity values already exceed the formal sum of the values for the tests with individual applications, then they likewise exceed the expected value according to Colby, which is calculated according to the following formula and is likewise regarded as an indication of synergy (cf. S. R. Colby in Weeds, 15 (1967), pp. 20 to 22):
In this connection: • A, B=action of the component A or B in percent at a dosage of a or b grams ai/ha. • E=expected value in % at a dosage of a+b grams ai/ha.
The abbreviation IPOHE is the harmful plant Ipomoea hederacea.

[1] abbreviates: dosage 50 g/ha, visual rating vs untreated control.

SMILES strings stand for the structures.

Turning to `CC(C)N(C(=O)n1cnn(-c2ccc(Cl)cc2Cl)c1=O)c1ccc(F)cc1F` [B9, ipfencarbazone], under setting [1], the “Action against IPOHE” value was determined as 25%. Still for that read-out and setting: the value for `Nc1nc(C2CC2)nc(C(=O)[O-])c1Cl.[K+]` [B4, aminocyclopyrachlor] was 35%; that for `CS(=O)(=O)c1ccc(C(=O)C2C(=O)CCCC2=O)c(Cl)c1COCC(F)(F)F` [tembotrione] was 40%. On the same count and under the same terms, the value for `COc1cc(OC)nc(NC(=O)NS(=O)(=O)c2c(C3=NOCC(C)O3)c(Cl)nn2C)n1` (centres unmarked) [B21, 3-chloro-N-[(4,6-dimethoxypyrimidin-2-yl)carbamoyl]-1-methyl-4-(5-methyl-5,6-dihydro-1,4,2-dioxazin-3-yl)-1H-pyrazole-5-sulfonamide] was 15%. On to `COc1cc(OC)nc(NC(=O)NS(=O)(=O)Nc2ccccc2C(=O)N(C)C)n1` [B11, orthosulfamuron], for which the “Action against IPOHE” value (dosage 30 g/ha) is 40%. For the compound `COc1cc(OC)nc(NC(=O)NS(=O)(=O)Nc2ccccc2C(=O)C2CC2)n1` [B6, cyclosulfamuron], the “Action against IPOHE” value under setting [1] was 20%. Still for that read-out and setting: the result for `CCCc1ccc2nc(Cl)c(S(=O)(=O)NC(=O)Nc3nc(OC)cc(OC)n3)n2n1` [B14, propyrisulfuron] reads 30%. Consider `Cc1ccc2c(c1)[C@H](Nc1nc(N)nc(C(C)F)n1)[C@@H](C)C2` (some centres unmarked) [B7, indaziflam], for which the “Action against IPOHE” value (dosage 25 g/ha) turned out to be 25%. Take `CC(C)c1nn(C(=O)NC(C)(C)C)c(=O)n1N` [B1, amicarbazone]: the “Action against IPOHE” value (dosage 125 g/ha) is listed as 20%.

`C[C@@H](Oc1ccc(Oc2nc3ccc(Cl)cc3o2)cc1)C(=O)N(C)c1ccccc1F` [B10, metamifop]: under “dosage 75 g/ha”, the “Action against IPOHE” value is on record as 15%. Regarding `C#CCN(C)c1c(C#N)cnn1-c1nn2c(c1Cl)CCCC2` [B15, pyraclonil], under “dosage 75 g/ha”, the “Action against IPOHE” value is recorded as 30%. Regarding `COCc1cccc(C(O)c2nc(OC)cc(OC)n2)c1NS(=O)(=O)C(F)F` (centres unmarked) [B17, pyrimisulfan], the “Action against IPOHE” value under setting [1] was 20%. In the case of `Cc1nn(C)c(O)c1C(=O)c1ccc(C(F)(F)F)cc1S(C)(=O)=O` [B16, pyrasulfotole], the “Action against IPOHE” value (dosage 25 g/ha) was found to be 50%. In the case of `CCc1cc(C)cc(CC)c1-c1c(OC(=O)C(C)(C)C)n2n(c1=O)CCOCC2` [B13, pinoxaden], the “Action against IPOHE” value (dosage 30 g/ha) worked out at 15%. Regarding `Nc1cc(Cl)nc(C(=O)O)c1Cl` [B2, aminopyralid], the “Action against IPOHE” value (dosage 75 g/ha) worked out at 30%.

With `Cn1nc(C(F)(F)F)c(CS(=O)(=O)C2=NOC(C)(C)C2)c1OC(F)F` [B18, pyroxasulfone], the “Action against IPOHE” value (dosage 75 g/ha) is 15%.

Consider `CC(C)N(C)S(=O)(=O)NC(=O)c1cc(-n2c(=O)cc(C(F)(F)F)n(C)c2=O)c(F)cc1Cl` [B20, saflufenacil], for which, under “dosage 10 g/ha”, the “Action against IPOHE” value stood at 45%. Consider `COc1cc(OC)n2nc(NS(=O)(=O)c3c(C(F)(F)F)ccnc3OC)nc2n1` [B19, pyroxsulam], for which, where the note is “dosage 15 g/ha”, the “Action against IPOHE” value was 20%. In the case of `COc1cnc(OC)n2nc(NS(=O)(=O)c3c(OCC(F)F)cccc3C(F)(F)F)nc12` [B12, penoxsulam], the “Action against IPOHE” value (dosage 15 g/ha) was 20%. For `COCC(=O)OC(c1ncccc1S(=O)(=O)NC(=O)Nc1nc(OC)cc(OC)n1)C(C)F` (centres unmarked) [B8, flucetosulfuron], under setting [1], the “Action against IPOHE” value is listed as 20%.
